Results taken from US9012651B2, “TRPV3 modulators” (AbbVie Inc., priority 2011, dated 2015).

biological target: human TRPV3 receptors (Homo sapiens (Human), UniProt Q8NET8); assay: Calcium flux assay (FLIPR TETRA), inhibition of the 2-APB response; assay type: cell-based; details: recombinant HEK293 cells stably expressing TRPV3, Calcium-4 dye, 2-APB at its EC80
Summary of the method: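 HEK293 cells stably expressing human and mouse TRPV3, plated the day before and dye-loaded 90-120 min in the dark, read on FLIPR Tetra. Peak fluorescence increase over baseline was expressed as percent of the maximal 2-APB response without compound.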

human TRPV3 receptors, sequence (Q8NET8 whole entry): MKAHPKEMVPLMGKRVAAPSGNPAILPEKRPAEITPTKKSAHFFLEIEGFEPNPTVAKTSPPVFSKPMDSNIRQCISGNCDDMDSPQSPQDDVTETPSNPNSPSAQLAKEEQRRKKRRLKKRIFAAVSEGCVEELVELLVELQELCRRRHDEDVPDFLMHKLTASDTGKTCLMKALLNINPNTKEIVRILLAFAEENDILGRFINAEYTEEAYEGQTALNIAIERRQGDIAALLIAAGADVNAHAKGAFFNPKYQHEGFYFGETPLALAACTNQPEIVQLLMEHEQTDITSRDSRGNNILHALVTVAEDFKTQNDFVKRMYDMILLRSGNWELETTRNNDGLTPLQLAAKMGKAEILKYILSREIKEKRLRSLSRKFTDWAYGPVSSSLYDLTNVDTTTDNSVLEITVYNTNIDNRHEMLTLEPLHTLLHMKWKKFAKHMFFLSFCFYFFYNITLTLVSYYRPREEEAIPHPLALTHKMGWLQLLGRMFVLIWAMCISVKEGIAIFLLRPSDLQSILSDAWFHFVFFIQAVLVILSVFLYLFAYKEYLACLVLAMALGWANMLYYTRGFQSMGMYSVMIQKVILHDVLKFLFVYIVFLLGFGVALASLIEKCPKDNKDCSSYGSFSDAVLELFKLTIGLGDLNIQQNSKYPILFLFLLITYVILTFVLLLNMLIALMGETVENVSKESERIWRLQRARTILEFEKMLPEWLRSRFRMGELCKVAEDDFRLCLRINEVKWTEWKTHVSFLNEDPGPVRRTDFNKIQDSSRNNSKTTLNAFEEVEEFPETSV

Structure (SMILES) | IC50 [nM]
CC(C)[C@H](CO)NCc1nc(-c2cccc(S(=O)(=O)N3CCCCC3)c2)ccc1F [Example 48, (2R)-2-[({3-fluoro-6-[3-(piperidin-1-ylsulfonyl)phenyl]pyridin-2-yl}methyl)amino]-3-methylbutan-1-ol] | 330
CC(C)[C@H](CO)NCc1nccc(-c2ccc(F)cc2)n1 [Example 32, (2R)-2-({[4-(4-fluorophenyl)pyrimidin-2-yl]methyl}amino)-3-methylbutan-1-ol] | 12000
CC(C)[C@H](CO)NCc1nc(N2CCCC(C(F)(F)F)C2)ccc1F (stereo partly drawn) [Example 65, (2R)-2-[({3-fluoro-6-[3-(trifluoromethyl)piperidin-1-yl]pyridin-2-yl}methyl)amino]-3-methylbutan-1-ol] | 320
CC(C)[C@H](CO)NCc1nc(C2CCOCC2)ccc1F [Example 204, (2R)-2-({[3-fluoro-6-(tetrahydro-2H-pyran-4-yl)pyridin-2-yl]methyl}amino)-3-methylbutan-1-ol] | > 20000
OC[C@H](NCc1ccnc(-c2ccc(C(F)(F)F)cc2)n1)c1ccccc1 [Example 139, (2R)-2-phenyl-2-[({2-[4-(trifluoromethyl)phenyl]pyrimidin-4-yl}methyl)amino]ethanol] | 8080
C[C@@H](O)[C@H](CO)NCc1ccnc(-c2ccc(C(F)(F)F)cc2)n1 [Example 152, (2S,3R)-2-[({2-[4-(trifluoromethyl)phenyl]pyrimidin-4-yl}methyl)amino]butane-1,3-diol] | > 20000
CC(C)[C@H](CO)NCc1nc(-c2ccc(C(F)(F)F)cc2)ccc1F [Example 17, (2R)-2-[({3-fluoro-6-[4-(trifluoromethyl)phenyl]pyridin-2-yl}methyl)amino]-3-methylbutan-1-ol] | 200
OC[C@H](NCc1ccnc(-c2ccc(C(F)(F)F)cn2)n1)C1CC1 [Example 196, (2R)-2-cyclopropyl-2-[({2-[5-(trifluoromethyl)pyridin-2-yl]pyrimidin-4-yl}methyl)amino]ethanol] | > 20000
O[C@@H]1CCCC[C@@H]1NCc1ccnc(-c2ccc(C(F)(F)F)cc2)n1 [Example 172, (1R,2S)-2-[({2-[4-(trifluoromethyl)phenyl]pyrimidin-4-yl}methyl)amino]cyclohexanol] | 4930
OC[C@H](NCc1nc(-c2ccc(OCC(F)(F)F)nc2)ccc1F)C1CC1 [Example 76, (2R)-2-cyclopropyl-2-({[5-fluoro-6′-(2,2,2-trifluoroethoxy)-2,3′-bipyridin-6-yl]methyl}amino)ethanol] | 1600
CC(C)[C@H](CO)NCc1nc(C2CCCCCC2)ccc1F [Example 206] | 1230
CC(C)[C@H](CO)NCc1cccc(-c2ccc([Si](C)(C)C(C)(C)C)s2)n1 [Example 227, (2R)-2-{[(6-{5-[tert-butyl(dimethyl)silyl]thiophen-2-yl}pyridin-2-yl)methyl]amino}-3-methylbutan-1-ol] | 1800
CC(C)[C@H](CO)NCc1nc(-c2cc(F)c(F)cc2F)ccc1F [Example 246, (2R)-2-({[3-fluoro-6-(2,4,5-trifluorophenyl)pyridin-2-yl]methyl}amino)-3-methylbutan-1-ol] | 160
OCC1(NCc2cccc(-c3ccc(F)c(Cl)c3)n2)CCCC1 [Example 266, [1-({[6-(3-chloro-4-fluorophenyl)pyridin-2-yl]methyl}amino)cyclopentyl]methanol] | 390
CC(C)[C@H](CO)NCc1ccnc(-c2ccc(S(=O)(=O)C(F)(F)F)cc2)n1 [Example 207, (2R)-3-methyl-2-{[(2-{4-[(trifluoromethyl)sulfonyl]phenyl}pyrimidin-4-yl)methyl]amino}butan-1-ol] | 680
CC(C)[C@H](CO)NCc1cccc(-c2ccc(C(F)(F)F)cc2C(F)(F)F)n1 [Example 270, (2R)-2-[({6-[2,4-bis(trifluoromethyl)phenyl]pyridin-2-yl}methyl)amino]-3-methylbutan-1-ol] | 550
CC(C)[C@H](CO)NCc1nc(-c2ccc3sccc3c2)ccc1F [Example 255, (2R)-2-({[6-(1-benzothiophen-5-yl)-3-fluoropyridin-2-yl]methyl}amino)-3-methylbutan-1-ol] | 230
CC(C)[C@H](CO)NCc1nc(-c2cccc(-n3cccn3)c2)ccc1F [Example 260, (2R)-2-[({3-fluoro-6-[3-(1H-pyrazol-1-yl)phenyl]pyridin-2-yl}methyl)amino]-3-methylbutan-1-ol] | 300
CC(C)[C@H](CO)NCc1nc(-c2cc(F)c(F)c(F)c2)ccc1F [Example 244, (2R)-2-({[3-fluoro-6-(3,4,5-trifluorophenyl)pyridin-2-yl]methyl}amino)-3-methylbutan-1-ol] | 160
CC(C)(O)[C@H](CO)NCc1ccnc(-c2ccc(C(F)(F)F)cn2)n1 [Example 197, (2S)-3-methyl-2-[({2-[5-(trifluoromethyl)pyridin-2-yl]pyrimidin-4-yl}methyl)amino]butane-1.3-diol] | > 20000
CC(C)[C@H](CO)NCc1nc(C2CCCOC2)ccc1F (stereo partly drawn) [Example 218, (2R)-2-({[3-fluoro-6-(tetrahydro-2H-pyran-3-yl)pyridin-2-yl]methyl}amino)-3-methylbutan-1-ol] | > 20000

More lines, now with the values ahead:

IC50 [nM] | Structure (SMILES)
> 20000 | OC[C@H](NCc1ccnc(-c2ccc(C(F)(F)F)nc2)n1)C1CC1 [Example 188, (2R)-2-cyclopropyl-2-[({2-[6-(trifluoromethyl)pyridin-3-yl]pyrimidin-4-yl}methyl)amino]ethanol]
180 | CC(C)[C@H](CO)NCc1cccc(-c2ccc(F)c(C(F)(F)F)c2)n1 [Example 267, (2R)-2-[({6-[4-fluoro-3-(trifluoromethyl)phenyl]pyridin-2-yl}methyl)amino]-3-methylbutan-1-ol]
730 | Cc1nc(-c2ccccc2)sc1-c1ccc(F)c(CN[C@@H](CO)C(C)C)n1 [Example 287, (2R)-2-({[3-fluoro-6-(4-methyl-2-phenyl-1,3-thiazol-5-yl)pyridin-2-yl]methyl}amino)-3-methylbutan-1-ol]
15600 | COCC(CO)NCc1ccnc(-c2ccc(C(F)(F)F)cc2)n1 (stereo not shown) [Example 144, 3-methoxy-2-[({2-[4-(trifluoromethyl)phenyl]pyrimidin-4-yl}methyl)amino]propan-1-ol]
1770 | Cc1ccc(S(=O)(=O)N(C)C)cc1-c1ccc(F)c(CN[C@@H](CO)C(C)C)n1 [Example 50, 3-[5-fluoro-6-({[(2R)-1-hydroxy-3-methylbutan-2-yl]amino}methyl)pyridin-2-yl]-N,N,4-trimethylbenzenesulfonamide]
> 20000 | OCC1(CNCc2ccnc(-c3ccc(C(F)(F)F)cc3)n2)CCCC1 [Example 158, (1-{[({2-[4-(trifluoromethyl)phenyl]pyrimidin-4-yl}methyl)amino]methyl}cyclopentyl)methanol]
2160 | CC(C)[C@H](CO)NCc1nc(-c2ccnc(N3CCOCC3)c2)ccc1F [Example 55, (2R)-2-({[5-fluoro-2′-(morpholin-4-yl)-2,4′-bipyridin-6-yl]methyl}amino)-3-methylbutan-1-ol]
> 20000 | C[C@@H](O)[C@@H](CO)NCc1ccnc(-c2ccc(C(F)(F)F)nc2)n1 [Example 191, (2R,3R)-2-[({2-[6-(trifluoromethyl)pyridin-3-yl]pyrimidin-4-yl}methyl)amino]butane-1,3-diol]
1860 | CC(C)[C@H](CO)NCc1nc(C#Cc2ccc(C(C)(C)C)cc2)ccc1F [Example 241, (2R)-2-[({6-[(4-tert-butylphenyl)ethynyl]-3-fluoropyridin-2-yl}methyl)amino]-3-methylbutan-1-ol]
> 20000 | OCC1(NCc2ccnc(-c3ccc(C(F)(F)F)cc3)n2)CCC1 [Example 132, {1-[({2-[4-(trifluoromethyl)phenyl]pyrimidin-4-yl}methyl)amino]cyclobutyl}methanol]
9310 | OC[C@H](NCc1ccnc(-c2ccc(C(F)(F)F)cc2)n1)[C@@H](O)c1ccccc1 [Example 153, (1S,2S)-1-phenyl-2-[({2-[4-(trifluoromethyl)phenyl]pyrimidin-4-yl}methyl)amino]propane-1,3-diol]
1740 | CC(C)[C@H](CO)NCc1nc(-c2cccc3c2ccn3C)ccc1F [Example 63, (2R)-2-({[3-fluoro-6-(1-methyl-1H-indol-4-yl)pyridin-2-yl]methyl}amino)-3-methylbutan-1-ol]
80 | CC(C)[C@H](CO)NCc1nc(C2=CCC(C(F)(F)F)CC2)ccc1F (stereo partly drawn) [Example 223, (2R)-2-[({3-fluoro-6-[4-(trifluoromethyl)cyclohex-1-en-1-yl]pyridin-2-yl}methyl)amino]-3-methylbutan-1-ol]
2920 | CC(C)[C@H](CO)NCc1cccc(-c2ccccc2)n1 [Example 225, (2R)-3-methyl-2-{[(6-phenylpyridin-2-yl)methyl]amino}butan-1-ol]
> 20000 | C[C@@H](O)[C@@H](CO)NCc1ccnc(-c2ccc(C(F)(F)F)cn2)n1 [Example 198, (2R,3R)-2-[({2-[5-(trifluoromethyl)pyridin-2-yl]pyrimidin-4-yl}methyl)amino]butane-1,3-diol]
420 | CC(C)[C@H](CO)NCc1nc(-c2ccc3occc3c2)ccc1F [Example 256, (2R)-2-({[6-(1-benzofuran-5-yl)-3-fluoropyridin-2-yl]methyl}amino)-3-methylbutan-1-ol]
> 20000 | COCC(CO)NCc1ccnc(-c2ccc(C(F)(F)F)nc2)n1 (stereo not shown) [Example 187, 3-methoxy-2-[({2-[6-(trifluoromethyl)pyridin-3-yl]pyrimidin-4-yl}methyl)amino]propan-1-ol]
260 | CC(C)[C@H](CO)NCc1nc(N2CCc3ccc(C(F)(F)F)cc3C2)ccc1F [Example 103, (2R)-2-[({3-fluoro-6-[7-(trifluoromethyl)-3,4-dihydroisoquinolin-2(1H)-yl]-pyridin-2-yl}methyl)amino]-3-methylbutan-1-ol]
340 | CC(C)[C@H](CO)NCc1nc(N2Cc3cccc(Cl)c3C2)ccc1F [Example 95, (2R)-2-({[6-(4-chloro-1,3-dihydro-2H-isoindol-2-yl)-3-fluoropyridin-2-yl]methyl}amino)-3-methylbutan-1-ol]
